Results as given in US7691601B2, “Medium for detecting and/or identifying of microorganisms” (priority 2003, dated 2010).

Columns and labels:
[1] = Colonies column read for stool without added strain, castanospermine medium; set-up: key: 0=no coloration; 0.5=trace of coloration; 1=weak coloration; 2=strong coloration; details: Table 6, no strain
Protocol: (§1) Seeding of Salmonella bacteria: 10 μl of stools are deposited onto a Petri dish, this stool suspension is mixed or not mixed with 10 μl of a suspension of Salmonella (0.5 McF) and isolated as 3 dials on a Petri dish. Various […] and various Salmonella strains originating from the applicant's collection are used according to this protocol. The Petri dishes are incubated at 37° C. for 24 hours. The appearance of a coloration at the point of deposit of the stool (“deposit” column) and at the Salmonella colony (“colony” column) is read according to a semi-quantitative scale: • 0=no coloration • 0.5=trace of coloration • 1=weak coloration • 2=strong coloration The results obtained are given in Table 1.
(§2) Preparation of the detection medium: 250 ml of the medium of Example 1, in which the O,O-diethyl p-nitrophenyl phosphate is replaced with various concentrations of castanospermine: 0, 1, 2, 4 and 8 g/l, are prepared according to the method of Example 1.
(§3) The various detection media thus obtained are poured into Petri dishes.
(§4) Seeding of Staphylococcus aureus strains: The Petri dishes are inoculated, incubated and read as in Example 1.

[2] = test system: Staphylococcus aureus strains; experiment: Coloration of Staphylococcus aureus colonies, castanospermine medium; assay type: cell-based; set-up: key to Colonies coloration: 0=no coloration; 0.5=trace of coloration; 1=weak coloration; 2=strong coloration; details: for Colonies coloration: Table 6
Protocol: as §1, §2, §3, §4

[3] = test system: free α-glucosidase in a sample (stools); experiment: Coloration at the point of deposit of the stool, castanospermine medium; assay type: biochemical; set-up: key to Deposit coloration: 0=no coloration; 0.5=trace of coloration; 1=weak coloration; 2=strong coloration; details: for Deposit coloration: Table 6
Protocol: as §1, §2, §3, §4

[4] = 1 g/l, stool A, Staphylococcus aureus No. 1
[5] = 1 g/l, stool B, Staphylococcus aureus no 2
[6] = 2 g/l, stool A, Staphylococcus aureus No. 1
[7] = 2 g/l, stool B, Staphylococcus aureus no 2
[8] = 4 g/l, stool A, Staphylococcus aureus No. 1
[9] = 4 g/l, stool B, Staphylococcus aureus no 2
[10] = 8 g/l, stool A, Staphylococcus aureus No. 1
[11] = 8 g/l, stool B, Staphylococcus aureus no 2

With castanospermine as the substance, how does the Colonies coloration ([1]; 1 g/l, stool A) read?
The Colonies coloration was 0.

And the Colonies coloration ([1]; 1 g/l, stool B)?
Its Colonies coloration is 0.

What about the Colonies coloration ([1]; 2 g/l, stool A) of the same substance?
Its Colonies coloration is 0.

And the Colonies coloration ([1]; 2 g/l, stool B)?
The Colonies coloration was 0.

And the Colonies coloration ([1]; 4 g/l, stool A)?
The Colonies coloration was 0.

And the Colonies coloration ([1]; 4 g/l, stool B)?
Its Colonies coloration is 0.

What about the Colonies coloration ([1]; 8 g/l, stool A) of the same substance?
The Colonies coloration was 0.

And the Colonies coloration ([1]; 8 g/l, stool B)?
The Colonies coloration was 0.

What about the “Enzymes originating from the bacteria” value ([2]; Staphylococcus aureus colonies, summary in words) of the same substance?
Its value is “not inhibited”.

What about the Colonies coloration [2, 4] of the same substance?
The Colonies coloration was 2.

And the Colonies coloration [2, 5]?
The Colonies coloration was 2.

And the Colonies coloration [2, 6]?
The Colonies coloration was 2.

What about the Colonies coloration [2, 7] of the same substance?
Its Colonies coloration is 2.

And the Colonies coloration [2, 8]?
The Colonies coloration was 2.

And the Colonies coloration [2, 9]?
The Colonies coloration was 2.

What about the Colonies coloration [2, 10] of the same substance?
Its Colonies coloration is 1.

What about the Colonies coloration [2, 11] of the same substance?
The Colonies coloration was 1.

What about the Deposit coloration [3, 4] of the same substance?
Its Deposit coloration is 2.

What about the Deposit coloration ([3]; 1 g/l, stool A, no strain) of the same substance?
Its Deposit coloration is 1.

And the Deposit coloration [3, 5]?
The Deposit coloration was 2.

And the Deposit coloration ([3]; 1 g/l, stool B, no strain)?
Its Deposit coloration is 0.5.

And the Deposit coloration [3, 6]?
The Deposit coloration was 1.

What about the Deposit coloration ([3]; 2 g/l, stool A, no strain) of the same substance?
Its Deposit coloration is 1.

What about the Deposit coloration [3, 7] of the same substance?
The Deposit coloration was 1.

What about the Deposit coloration ([3]; 2 g/l, stool B, no strain) of the same substance?
Its Deposit coloration is 0.5.

And the Deposit coloration [3, 8]?
The Deposit coloration was 1.

What about the Deposit coloration ([3]; 4 g/l, stool A, no strain) of the same substance?
The Deposit coloration was 0.5.

And the Deposit coloration [3, 9]?
Its Deposit coloration is 0.5.

And the Deposit coloration ([3]; 4 g/l, stool B, no strain)?
The Deposit coloration was 0.

What about the Deposit coloration [3, 10] of the same substance?
Its Deposit coloration is 1.

And the Deposit coloration ([3]; 8 g/l, stool A, no strain)?
The Deposit coloration was 0.

And the Deposit coloration [3, 11]?
Its Deposit coloration is 0.

And the Deposit coloration ([3]; 8 g/l, stool B, no strain)?
Its Deposit coloration is 0.

What about the “Aspecific enzymatic reactions due to the presence of free enzymes” value ([3]; stools, Staphylococcus aureus identification, summary in words) of the same substance?
Its value is “greatly inhibited”.
